Source: patent publication US20230093099A1, “COMPOUNDS AND METHODS OF TREATING CANCERS” (CULLGEN (SHANGHAI), INC., priority 2019, published 2023)

Test system: RS4;11 cells
Assay: Cell viability assay (CellTiter-Glo) in RS4;11 cells
Format: cell-based
Conditions: Homo sapiens, 72 h; RS4;11 cells; cell viability, 3 days, CellTiter-Glo; read-out: IC50
Procedure, shortened: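 RS4;11 cells seeded at 5000 per well, exposed for 3 days to 8- or 12-point 3-fold serial dilutions. Viability read by CellTiter-Glo luminescence; IC50 fitted by nonlinear least-squares regression.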

IC50 [nM]	Compound
> 10000	Cc1ncsc1-c1ccc(CNC(=O)[C@@H]2C[C@@H](O)CN2C(=O)[C@@H](NC(=O)CCCC(=O)N2CCN(c3ccc(Nc4nc5cccc(-c6ccc(S(C)(=O)=O)cc6)n5n4)cc3)CC2)C(C)(C)C)cc1 [JA-066, (2S,4R)-1-((S)-3,3-Dimethyl-2-(5-(4-(4-((5-(4-(methylsulfonyl)phenyl)-[1,2,4]triazolo[1,5-a]pyridin-2-yl)amino)phenyl)piperazin-1-yl)-5-oxopentanamido)butanoyl)-4-hydroxy-N-(4-(4-methylthiazol-5-yl)benzyl)pyrrolidine-2-carboxamide]
2750	Cc1ncsc1-c1ccc(CNC(=O)[C@@H]2C[C@@H](O)CN2C(=O)[C@@H](NC(=O)CCOCCOCCC(=O)N2CCN(c3ccc(Nc4nc5cccc(-c6ccc(S(C)(=O)=O)cc6)n5n4)cc3)CC2)C(C)(C)C)cc1 [JA-070, (2S,4R)-1-((S)-3,3-Dimethyl-2-(3-(2-(3-(4-(4-((5-(4-(methylsulfonyl)phenyl)-[1,2,4]triazolo[1,5-a]pyridin-2-yl)amino)phenyl)piperazin-1-yl)-3-oxopropoxy)ethoxy)propanamido)butanoyl)-4-hydroxy-N-(4-(4-methylthiazol-5-yl)benzyl)pyrrolidine-2-carboxamide]
872	Cc1ncsc1-c1ccc(CNC(=O)[C@@H]2C[C@@H](O)CN2C(=O)[C@@H](NC(=O)CCCCCCCC(=O)N2CCN(c3ccc(Nc4nc5cccc(-c6ccc(S(C)(=O)=O)cc6)n5n4)cc3)CC2)C(C)(C)C)cc1 [JA-065, (2S,4R)-1-((S)-3,3-Dimethyl-2-(9-(4-(4-((5-(4-(methylsulfonyl)phenyl)-[1,2,4]triazolo[1,5-a]pyridin-2-yl)amino)phenyl)piperazin-1-yl)-9-oxononanamido)butanoyl)-4-hydroxy-N-(4-(4-methylthiazol-5-yl)benzyl)pyrrolidine-2-carboxamide]
426	O=C1CCC(N2C(=O)c3ccc(OCCCCCCN4CCC(n5cc(-c6cnc7cccc(-c8cc(F)c(CN9CCOCC9)c(F)c8)c7n6)cn5)CC4)cc3C2=O)C(=O)N1 (stereo not drawn) [JA-267, 5-((6-(4-(4-(8-(3,5-Difluoro-4-(morpholinomethyl)phenyl)quinoxalin-2-yl)-1H-pyrazol-1-yl)piperidin-1-yl)hexyl)oxy)-2-(2,6-dioxopiperidin-3-yl)isoindoline-1,3-dione]
3110	Cc1cnc(Nc2ccc(N3CCN(C(=O)CCCNc4ccc5c(c4)C(=O)N(C4CCC(=O)NC4=O)C5=O)CC3)cc2)nc1Nc1cccc(S(=O)(=O)NC(C)(C)C)c1 (stereo not drawn) [JA-227, N-(tert-butyl)-3-((2-((4-(4-(4-((2-(2,6-dioxopiperidin-3-yl)-1,3-dioxoisoindolin-5-yl)amino)butanoyl)piperazin-1-yl)phenyl)amino)-5-methylpyrimidin-4-yl)amino)benzenesulfonamide]
> 10000	CS(=O)(=O)c1ccc(-c2cccc3nc(Nc4ccc(N5CCN(CC(=O)NCCCCCCCNc6cccc7c6C(=O)N(C6CCC(=O)NC6=O)C7=O)CC5)cc4)nn23)cc1 (stereo not drawn) [JA-116, N-(7-((2-(2,6-Dioxopiperidin-3-yl)-1,3-dioxoisoindolin-4-yl)amino)heptyl)-2-(4-(4-((5-(4-(methylsulfonyl)phenyl)-[1,2,4]triazolo[1,5-a]pyridin-2-yl)amino)phenyl)piperazin-1-yl)acetamide]
> 10000	Cc1ncsc1-c1ccc(CNC(=O)[C@@H]2C[C@@H](O)CN2C(=O)[C@@H](NC(=O)COCCOCCOCCNC(=O)CN2CCN(c3ccc(Nc4nc5cccc(-c6ccc(S(C)(=O)=O)cc6)n5n4)cc3)CC2)C(C)(C)C)cc1 [JA-131, (2S,4R)-1-((S)-2-(tert-Butyl)-17-(4-(4-((5-(4-(methylsulfonyl)phenyl)-[1,2,4]triazolo[1,5-a]pyridin-2-yl)amino)phenyl)piperazin-1-yl)-4,16-dioxo-6,9,12-trioxa-3,15-diazaheptadecanoyl)-4-hydroxy-N-(4-(4-methylthiazol-5-yl)benzyl)pyrrolidine-2-carboxamide]
2370	Cc1ncsc1-c1ccc(CNC(=O)[C@@H]2C[C@@H](O)CN2C(=O)[C@@H](NC(=O)CCCCCCCCNC(=O)CN2CCC(n3cc(-c4cnc5cccc(-c6cc(F)c(CN7CCOCC7)c(F)c6)c5n4)cn3)CC2)C(C)(C)C)cc1 [JA-161, (2S,4R)-1-((S)-2-(9-(2-(4-(4-(8-(3,5-Difluoro-4-(morpholinomethyl)phenyl)quinoxalin-2-yl)-1H-pyrazol-1-yl)piperidin-1-yl)acetamido)nonanamido)-3,3-dimethylbutanoyl)-4-hydroxy-N-(4-(4-methylthiazol-5-yl)benzyl)pyrrolidine-2-carboxamide]
176	CS(=O)(=O)c1ccc(-c2cccc3nc(Nc4ccc(N5CCN(C(=O)CCCCCNc6ccc7c(c6)CN(C6CCC(=O)NC6=O)C7=O)CC5)cc4)nn23)cc1 (stereo not drawn) [JA-275, 3-(5-((6-(4-(4-((5-(4-(Methylsulfonyl)phenyl)-[1,2,4]triazolo[1,5-a]pyridin-2-yl)amino)phenyl)piperazin-1-yl)-6-oxohexyl)amino)-1-oxoisoindolin-2-yl)piperidine-2,6-dione]
2250	Cc1ncsc1-c1ccc(CNC(=O)[C@@H]2C[C@@H](O)CN2C(=O)[C@@H](NC(=O)CCCCCCCCCCNC(=O)CN2CCC(n3cc(-c4cnc5cccc(-c6cc(F)c(CN7CCOCC7)c(F)c6)c5n4)cn3)CC2)C(C)(C)C)cc1 [JA-150, (2S,4R)-1-((S)-2-(11-(2-(4-(4-(8-(3,5-Difluoro-4-(morpholinomethyl)phenyl)quinoxalin-2-yl)-1H-pyrazol-1-yl)piperidin-1-yl)acetamido)undecanamido)-3,3-dimethylbutanoyl)-4-hydroxy-N-(4-(4-methylthiazol-5-yl)benzyl)pyrrolidine-2-carboxamide]
> 10000	Cc1ncsc1-c1ccc(CNC(=O)[C@@H]2C[C@@H](O)CN2C(=O)[C@@H](NC(=O)CCCCCCCCNC(=O)CN2CCN(c3ccc(Nc4nc5cccc(-c6ccc(S(C)(=O)=O)cc6)n5n4)cc3)CC2)C(C)(C)C)cc1 [JA-121, (2S,4R)-1-((S)-3,3-Dimethyl-2-(9-(2-(4-(4-((5-(4-(methylsulfonyl)phenyl)-[1,2,4]triazolo[1,5-a]pyridin-2-yl)amino)phenyl)piperazin-1-yl)acetamido)nonanamido)butanoyl)-4-hydroxy-N-(4-(4-methylthiazol-5-yl)benzyl)pyrrolidine-2-carboxamide]
9990	O=C1CCC(N2C(=O)c3ccc(NCCOCCOCCOCCC(=O)N4CCC(n5cc(-c6cnc7cccc(-c8cc(F)c(CN9CCOCC9)c(F)c8)c7n6)cn5)CC4)cc3C2=O)C(=O)N1 (stereo not drawn) [JA-184, 5-((2-(2-(2-(3-(4-(4-(8-(3,5-Difluoro-4-(morpholinomethyl)phenyl)quinoxalin-2-yl)-1H-pyrazol-1-yl)piperidin-1-yl)-3-oxopropoxy)ethoxy)ethoxy)ethyl)amino)-2-(2,6-dioxopiperidin-3-yl)isoindoline-1,3-dione]
> 500	Cn1c(=O)n(C2CCC(=O)NC2=O)c2ccc(NCCCCC(=O)N3CCC(n4cc(-c5cnc6cccc(-c7cc(F)c(CN8CCOCC8)c(F)c7)c6n5)cn4)CC3)cc21 (stereo not drawn) [JA-287, 3-(5-((5-(4-(4-(8-(3,5-Difluoro-4-(morpholinomethyl)phenyl)quinoxalin-2-yl)-1H-pyrazol-1-yl)piperidin-1-yl)-5-oxopentyl)amino)-3-methyl-2-oxo-2,3-dihydro-1H-benzo[d]imidazol-1-yl)piperidine-2,6-dione]
> 10000	CS(=O)(=O)c1ccc(-c2cccc3nc(Nc4ccc(N5CCN(CC(=O)NCCOCCOCCOCCOCCNc6ccc7c(c6)C(=O)N(C6CCC(=O)NC6=O)C7=O)CC5)cc4)nn23)cc1 (stereo not drawn) [JA-206, N-(14-((2-(2,6-Dioxopiperidin-3-yl)-1,3-dioxoisoindolin-5-yl)amino)-3,6,9,12-tetraoxatetradecyl)-2-(4-(4-((5-(4-(methylsulfonyl)phenyl)-[1,2,4]triazolo[1,5-a]pyridin-2-yl)amino)phenyl)piperazin-1-yl)acetamide]
> 10000	Cc1ncsc1-c1ccc(CNC(=O)[C@@H]2C[C@@H](O)CN2C(=O)[C@@H](NC(=O)CCCCCNC(=O)CN2CCC(n3cc(-c4cnc5cccc(-c6cc(F)c(CN7CCOCC7)c(F)c6)c5n4)cn3)CC2)C(C)(C)C)cc1 [JA-164, (2S,4R)-1-((S)-2-(6-(2-(4-(4-(8-(3,5-Difluoro-4-(morpholinomethyl)phenyl)quinoxalin-2-yl)-1H-pyrazol-1-yl)piperidin-1-yl)acetamido)hexanamido)-3,3-dimethylbutanoyl)-4-hydroxy-N-(4-(4-methylthiazol-5-yl)benzyl)pyrrolidine-2-carboxamide]
1240	CS(=O)(=O)c1ccc(-c2cccc3nc(Nc4ccc(N5CCN(CC(=O)NCCNc6ccc7c(c6)C(=O)N(C6CCC(=O)NC6=O)C7=O)CC5)cc4)nn23)cc1 (stereo not drawn) [JA-207, N-(2-((2-(2,6-Dioxopiperidin-3-yl)-1,3-dioxoisoindolin-5-yl)amino)ethyl)-2-(4-(4-((5-(4-(methylsulfonyl)phenyl)-[1,2,4]triazolo[1,5-a]pyridin-2-yl)amino)phenyl)piperazin-1-yl)acetamide]
> 10000	Cc1ncsc1-c1ccc(CNC(=O)[C@@H]2C[C@@H](O)CN2C(=O)[C@@H](NC(=O)CCOCCOCCOCCC(=O)N2CCN(c3ccc(Nc4nc5cccc(-c6ccc(S(C)(=O)=O)cc6)n5n4)cc3)CC2)C(C)(C)C)cc1 [JA-068, (2S,4R)-1-((S)-2-(tert-Butyl)-16-(4-(4-((5-(4-(methylsulfonyl)phenyl)-[1,2,4]triazolo[1,5-a]pyridin-2-yl)amino)phenyl)piperazin-1-yl)-4,16-dioxo-7,10,13-trioxa-3-azahexadecanoyl)-4-hydroxy-N-(4-(4-methylthiazol-5-yl)benzyl)pyrrolidine-2-carboxamide]

Compound	IC50 [nM]
Cc1ncsc1-c1ccc(CNC(=O)[C@@H]2C[C@@H](O)CN2C(=O)[C@@H](NC(=O)CNC(=O)CN2CCN(c3ccc(Nc4nc5cccc(-c6ccc(S(C)(=O)=O)cc6)n5n4)cc3)CC2)C(C)(C)C)cc1 [JA-126, (2S,4R)-1-((S)-3,3-Dimethyl-2-(2-(2-(4-(4-((5-(4-(methylsulfonyl)phenyl)-[1,2,4]triazolo[1,5-a]pyridin-2-yl)amino)phenyl)piperazin-1-yl)acetamido)acetamido)butanoyl)-4-hydroxy-N-(4-(4-methylthiazol-5-yl)benzyl)pyrrolidine-2-carboxamide]	> 10000
